Source: the supplement of paper PMC10627819

Assays:
Test in all cases: Bliss interaction score (quartile over a dose matrix) (fitness difference); higher = more antagonism (negative = synergy)
S. pneumoniae D39V = tested on: S. pneumoniae D39V
Procedure, shortened: (§1)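 Each plate was normalised to the robust mean of its own no-drug wells, using OD595 at entry into stationary phase, with values capped at 1. This normalised growth is the fitness value. The Bliss score is the difference between observed and product-expected fitness, with single-drug fitness inferred from the combination data and quartiles taken over technical, biological and donor/recipient replicates.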

S. aureus DSM 20231 = tested on: S. aureus DSM 20231
Procedure, shortened: as §1

S. aureus Newman = tested on: S. aureus Newman
Procedure, shortened: as §1

B. subtilis 168 = tested on: B. subtilis 168
Procedure, shortened: as §1
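Note: first quartile when negative (synergy) and third quartile when positive (antagonism).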

CC1=C(C(=O)O)N2C(=O)[C@@H](NC(=O)[C@H](N)c3ccccc3)[C@H]2SC1 [Cephalexin] + CC(C1CCC(C(O1)OC2C(CC(C(C2O)OC3C(C(C(CO3)(C)O)NC)O)N)N)N)NC [Gentamicin]
Bliss interaction score (S. pneumoniae D39V; main component drawn): -0.132
Bliss interaction score (S. aureus DSM 20231; main component drawn): -0.0632
Bliss interaction score (S. aureus Newman; main component drawn): -0.018
Bliss interaction score (B. subtilis 168; main component drawn): -0.0985

CC[C@H]1OC(=O)[C@H](C)C(=O)[C@H](C)[C@@H](O[C@@H]2O[C@H](C)C[C@H](N(C)C)[C@H]2O)[C@](C)(OC)C[C@@H](C)C(=O)[C@H](C)[C@H]2N(CCCCn3cnc(-c4cccnc4)c3)C(=O)O[C@]12C [Telithromycin] + COc1cc(Cc2cnc(N)nc2N)cc(OC)c1OC [Trimethoprim]
Bliss interaction score (S. pneumoniae D39V): 0.0323
Bliss interaction score (S. aureus DSM 20231): 0.0276
Bliss interaction score (S. aureus Newman): 0.0595
Bliss interaction score (B. subtilis 168): -0.243

CC1=C(C(=O)O)N2C(=O)[C@@H](NC(=O)[C@H](N)c3ccccc3)[C@H]2SC1 [Cephalexin] + CN(C)[C@@H]1C(O)=C(C(N)=O)C(=O)[C@@]2(O)C(O)=C3C(=O)c4c(O)ccc(Cl)c4[C@@](C)(O)[C@H]3C[C@@H]12 [Clortetracycline]
Bliss interaction score (S. pneumoniae D39V): 0.0348
Bliss interaction score (S. aureus DSM 20231): 0.0869
Bliss interaction score (S. aureus Newman): 0.104
Bliss interaction score (B. subtilis 168): 0.0862

O=C(O)[C@H]1/C(=C/CO)O[C@@H]2CC(=O)N21 [Clavulanic] + C[C@@H](O)[C@H]1C(=O)N2C(C(=O)O)=C(SCCNC=N)C[C@H]12 [Imipenem]
Bliss interaction score (S. pneumoniae D39V): 0.0559
Bliss interaction score (S. aureus DSM 20231): 0.094
Bliss interaction score (S. aureus Newman): -0.0736
Bliss interaction score (B. subtilis 168): 0.108

O=C(O)[C@H]1/C(=C/CO)O[C@@H]2CC(=O)N21 [Clavulanic] + COc1c(N2C[C@@H]3CCCN[C@@H]3C2)c(F)cc2c(=O)c(C(=O)O)cn(C3CC3)c12 [Moxifloxacin]
Bliss interaction score (S. pneumoniae D39V): 0.062
Bliss interaction score (S. aureus DSM 20231): -0.0739
Bliss interaction score (S. aureus Newman): 0.218
Bliss interaction score (B. subtilis 168): -0.0241

CC[C@H]1OC(=O)[C@H](C)[C@@H](O[C@H]2C[C@@](C)(OC)[C@@H](O)[C@H](C)O2)[C@H](C)[C@@H](O[C@@H]2O[C@H](C)C[C@H](N(C)C)[C@H]2O)[C@](C)(O)C[C@@H](C)CN(C)[C@H](C)[C@@H](O)[C@]1(C)O [Azithromycin] + CC[C@H]1OC(=O)[C@H](C)[C@@H](O[C@H]2C[C@@](C)(OC)[C@@H](O)[C@H](C)O2)[C@H](C)[C@@H](O[C@@H]2O[C@H](C)C[C@H](N(C)C)[C@H]2O)[C@](C)(OC)C[C@@H](C)C(=O)[C@H](C)[C@@H](O)[C@]1(C)O [Clarithromycin]
Bliss interaction score (S. pneumoniae D39V): -0.0473
Bliss interaction score (S. aureus DSM 20231): -0.107
Bliss interaction score (S. aureus Newman): -0.0536
Bliss interaction score (B. subtilis 168): -0.0578

Clc1ccc(COC(Cn2ccnc2)c2ccc(Cl)cc2Cl)c(Cl)c1 (centres undefined) [Miconazole] + CCCCCCCCCC(=O)N[C@@H]1[C@H]([C@@H]([C@H](O[C@H]1OC2=C3C=C4C=C2OC5=C(C=C(C=C5)[C@H]([C@H]6C(=O)N[C@@H](C7=C(C(=CC(=C7)O)OC8[C@H]([C@H]([C@@H]([C@H](O8)CO)O)O)O)C9=C(C=CC(=C9)[C@H](C(=O)N6)NC(=O)[C@@H]4NC(=O)[C@@H]1C2=CC(=CC(=C2)OC2=C(C=CC(=C2)[C@H](C(=O)N[C@H](CC2=CC(=C(O3)C=C2)Cl)C(=O)N1)N)O)O)O)C(=O)O)O[C@H]1[C@@H]([C@H]([C@@H]([C@H](O1)CO)O)O)NC(=O)C)Cl)CO)O)O [Teicoplanin]
Bliss interaction score (S. pneumoniae D39V; main component drawn): 0.115
Bliss interaction score (S. aureus DSM 20231; main component drawn): -0.0409
Bliss interaction score (S. aureus Newman; main component drawn): -0.0558
Bliss interaction score (B. subtilis 168; main component drawn): 0.117

O=C(O)[C@H]1/C(=C/CO)O[C@@H]2CC(=O)N21 [Clavulanic] + Cn1nnc(-c2ccc(-c3ccc(N4C[C@H](CO)OC4=O)cc3F)cn2)n1 [Tedizolid]
Bliss interaction score (S. pneumoniae D39V): -0.0878
Bliss interaction score (S. aureus DSM 20231): -0.18
Bliss interaction score (S. aureus Newman): 0.255
Bliss interaction score (B. subtilis 168): 0.0942

CNC(C)C1CCC(N)C(OC2C(N)CC(N)C(OC3OCC(C)(O)C(NC)C3O)C2O)O1 (centres undefined) [Gentamicin] + Oc1cc(Cl)ccc1Oc1ccc(Cl)cc1Cl [Triclosan]
Bliss interaction score (S. pneumoniae D39V; main component drawn): 0.0731
Bliss interaction score (S. aureus DSM 20231; main component drawn): -0.0821
Bliss interaction score (S. aureus Newman; main component drawn): 0.0182
Bliss interaction score (B. subtilis 168; main component drawn): -0.17

O=C(O)[C@H]1/C(=C/CO)O[C@@H]2CC(=O)N21 [Clavulanic] + COc1cc(Cc2cnc(N)nc2N)cc(OC)c1OC [Trimethoprim]
Bliss interaction score (S. pneumoniae D39V): 0.116
Bliss interaction score (S. aureus DSM 20231): -0.186
Bliss interaction score (S. aureus Newman): 0.221
Bliss interaction score (B. subtilis 168): 0.101

CNC(C)C1CCC(N)C(OC2C(N)CC(N)C(OC3OCC(C)(O)C(NC)C3O)C2O)O1 (centres undefined) [Gentamicin] + CO[C@@]12[C@H](COC(N)=O)C3=C(C(=O)C(C)=C(N)C3=O)N1C[C@@H]1N[C@@H]12 [MitomycinC]
Bliss interaction score (S. pneumoniae D39V; main component drawn): 0.0575
Bliss interaction score (S. aureus DSM 20231; main component drawn): -0.0573
Bliss interaction score (S. aureus Newman; main component drawn): 0.0445
Bliss interaction score (B. subtilis 168; main component drawn): -0.0792
